Residues, ends and D or L forms follow the SMILES beside them. *: point of attachment. Cbz = O=C(OCc1ccccc1)*
Legend:
[1] = tested on: NRF2 target proteins (G6PD, PGD, ME1, GCLM, AKR1B10 and AKR1C3); assay: Western blotting of NRF2 target proteins in KEAP1 mutant cells; format: cell-based; conditions: 2, 4 or 5 days
Protocol: In order to confirm the effect of glucocorticoid on cells having high NRF2-activity, KEAP1 mutant cells (A549 and H2228) were treated with clobetasol propionate for 2 days, 4 days or 5 days, the expression of major NRF2 target proteins (G6PD, PGD, ME1, GCLM, AKR1B10 and AKR1C3) associated with redox regulation was measured by the Western blotting. As a control, the cell was used, in which NRF2-shRNA was transformed to H2228 cell line to inhibit NRF2 expression.

H1299 = assay: Soft agar assay, H1299; format: cell-based; conditions: H1299 (KEAP1-normal, LKB1-normal), 2 weeks
Protocol: (§1) The synergistic anticancer effects of the treatment of clobetasol propionate sole and the combined use with rapamycin, an mTOR inhibitor on LKB1/KEAP1 normal lung cancer cell line H1299, KEAP1 mutant cell line H2228, LKB1/KEAP1 mutant lung cancer cell lines A549 and H460 were analyzed by soft agar assay. In order to confirm whether the tumor inhibitory effect of clobetasol propionate was due to NRF2 inhibition, the effect was compared with tumor suppression effect in NRF2 knock-down lung cancer cell line using NRF2-shRNA-2, which was used in the Example 2.
(§2) Specifically, […] of a 0.7% agar-containing DMEM medium was added into a 12-well plate and was solidified (bottom agar) and 300 μl of a DMEM medium containing 3×10^3 cells and 0.35% agar was placed on the solidified agar medium and solidified (top agar+/− Doxycycline). After solidification, 250 μl of DMEM medium (+/− Doxycycline) was added and the number of colonies formed after culturing for 2 weeks in a CO2 incubator was determined, and the result was shown in FIGS. 7a to 7e.

H2228 = assay: Soft agar assay, H2228; format: cell-based; conditions: H2228 (KEAP1-mutant, LKB1-normal), 2 weeks
Protocol: as §1, §2

[2] = tested on: A549 and H2228 cell lines; assay: Hydrogen peroxide (active oxygen) measurement with CMH2DCF-DA; format: cell-based
Protocol: In addition, because ME1 and GCLM proteins have detoxification activity of hydrogen peroxide, to confirm this change, the amount of hydrogen peroxide after the treatment with clobetasol propionate was measured as follows: The A549 and H2228 cell lines were cultured in 5 μM CMH2DCF-DA (Invitrogen) after the incubation for 30 minutes, the cultured cells were washed twice with phosphate buffered saline and incubated in the dark for 40 minutes with 90% dimethylsulfoxide (DMSO) and 10% PBS, and the fluorescent dye was released. After the culture, the supernatant of the culture liquid was dispensed into a 96-well plate and the amount of fluorescence was measured at 480/530 nm. For standardization of the measured fluorescence intensity, the cells remaining after removing the supernatant and washing with PBS, were stained with a crystal violet solution (20% methanol and 0.5% crystal violet) for 10 minutes at room temperature. After washing three times, the incubation was performed for solubilization in 1% SDS solution and absorbance at 570 nm was measured.

H460 = assay: Soft agar assay, H460; format: cell-based; conditions: H460 (KEAP1-mutant, LKB1-mutant), sole treatment
Protocol: as §1, §2
Thereafter, the synergistic effect was analyzed when clobetasol propionate and rapamycin were simultaneously treated, or NRF2 was knocked down using NRF2-shRNA and treated with rapamycin.

[3] = Xenograft assay, body weight / side effects; format: in vivo, Balb/c-nu mice; conditions: all treatment groups, 40 days
Protocol: On the other hand, xenograft assay was performed using A549 cell line. Specifically, Balb/c-nu mice (6-8 weeks of age, Orient Bio, Seongnam, Korea) were prepared to perform tumor genografts and A549-luc-C8 cells (Perkin Elmer, 5.0×10^6/head) were injected subcutaneously into the mice. Two weeks later, when the size of tumors reached 50-100 mm^3, mice were divided to 6 groups: a control group administered with only vehicle (200 μl of PBS containing 1.2% DMSO, 0.25% PEG 400 and 0.25% tween 80), a group administered with 0.5 mg/kg of clobetasol propionate (CP), a group administered with 1 mg/kg of clobetasol propionate, a group administered with 1 mg/kg of rapamycin, and Combination 1 (CP 0.5 mg/kg+rapamycin 1 mg/kg) and Combination 2 (CP 1 mg/kg+rapamycin 1 mg/kg). Then, for the next 40 days, the vehicle and rapamycin (n=5 per group) were injected intraperitoneally daily (5 days per week) and clobetasol propionate was injected intraperitoneally once every 2 days (3 days per week).
Primary tumor size and body weight were measured every 3 to 4 days by a caliper and a balance, and the volume of the tumor was V (mm^3)=(A×B^2)/2 (V is volume, A Is the long diameter and B is the short diameter).

A549-luc-C8 cells = assay: Xenograft assay with A549 cell line, tumor volume; format: in vivo, Balb/c-nu mice; conditions: 40 days
Source text: Thereafter, mice were sacrificed in a 7.5% CO2 chamber and tumors were obtained for further analysis.

A549 = assay: Soft agar assay, A549; format: cell-based; conditions: A549 (KEAP1-mutant, LKB1-mutant), 2 weeks
Protocol: as §1, §2

NRF2 [4] = assay: Western blotting of nuclear and cytoplasmic fractions (NRF2 migration to the nucleus); format: cell-based
Source text: Furthermore, GSK3 inhibits the migration of NRF2 to the nucleus, as known so far.

NRF2 [5] = assay: Real-time PCR of NRF2 mRNA in A549 cells; format: cell-based
Protocol: (§3) According to accumulated research results, NRF2 protein levels can be regulated by mRNA transcription, or proteasome related degradation. To confirm whether NRF2 is suppressed through mRNA transcription inhibition or NRF2 is suppressed by promoting proteasome-related degradation, real-time PCR was performed on the cells, and MG132, a proteasome inhibitor, was treated and Western blotting was performed in the same manner as in the Example 1.
Specifically, for real-time PCR, total RNA was extracted from A549 cells using TRIZol (Invitrogen). Then, 1 μg of total RNA was reverse transcribed to cDNA using oligo dT primer and SuperScript II Reverse Transcriptase according to the manufacturer's instructions (Invitrogen). Thereafter, PCR was performed according to the manufacturer's instructions (Affymetrix) using HotStart-IT SYBR Green qPCR Master Mix.

NRF2 [6] = assay: ARE-luciferase assay for NRF2 activity in A549-ARE cells; format: cell-based
Protocol: In addition, A549-ARE cells were firstly dispensed into 5×10^3 cells per well in a 96 well plate, and each of the clinical compounds was treated with various concentrations (1 μM or 5 μM) after 24 hours. After 24 hours, 30 μl of a lysis buffer was added, and the mixture was dissolved at 4° C. for 40 minutes using a rocker. 20 μl of the dissolved product was added to a 96-well white plate and 100 μl of a luciferase substrate buffer having the following composition was added thereto and luciferase activity was measured by using a plate reader.
The remaining dissolved product was diluted five times with distilled water (DW) and the protein concentration was measured by the Bradford assay (BioRad). Specifically, 200 μl of the Bradford reagent (Coomassie Brilliant Blue G-250) diluted […] with distilled water was reacted with 5 μl of the remaining dissolved product and absorbance was measured at 595 nm. The protein concentration of the dissolved products was calculated by the same experiment using BSA solution as a standard protein. The luciferase value was calibrated by dividing the luciferase value measured above by the measured protein concentration.
Namely, the luciferase assays were performed using […] cells as the method of the Example 1.

NRF2 [7] = assay: Western blotting of NRF2 protein in A549 cells; format: cell-based
Protocol: (§4) Specifically, for Western blotting, the A549 cells expressing Tet-pLKO-NCshRNA (negative control) and three Tet-pLKO-NRF2 shRNAs were treated with doxycycline for 3 days and 6 days, followed by separation of proteins. Each separated 10 μg of the protein was loaded on 8% acrylamide gel, electrophoresed, transferred to nitrocellulose (NC) membrane, and NRF2 antibody (Cell signaling, 1:1000) and actin antibody (SCBT, 1:1000) were diluted in TBST (Tris-Buffered Saline with Tween 20) buffer containing 5% skim milk and reacted overnight at 4° C. Subsequently, the secondary antibody was reacted for 1 hour, washed with TBST, and the protein expression level was measured using ECL (Enhanced chemiluminescence).
Firstly, the A549-tet-on cells transfected with the vector containing GCR-shRNA were constructed and after the treatment with doxycycline and clobetasol propionate, and protein extracts were prepared by hemolysis with cell lysis buffer (Cell signaling technology) supplemented with protease inhibitor cocktail (EMD millipore) to perform Western blotting. Then, western blotting was carried out in the same manner as in the Example 1. At this time, the concentration of the protein was determined by performing a Bradford assay according to the Example 1. In addition, luciferase assays were carried out in the same manner as in the Example 1.
as §3
In general, proteasome degradation of the NRF2 protein consists of two pathways as shown in FIG. 5a: i.e. a pathway by KEAP1 and a pathway by GSK3-β-TrCP. […]

NRF2 [8] = assay: Verification of doxycycline-inducible NRF2-shRNA in A549-ARE cells (Western blotting, luciferase, GFP); format: cell-based; conditions: doxycycline-induced, compared among three NRF2-shRNAs
Protocol: In order to construct a Tet-inducible shRNA expression system, the following shRNAs were inserted into a tet-pLKO-pyro vector (Dmitri Wiederschain: Addgene plasmid #21915) and then A549-ARE cell line expressing doxycycline-inducible NRF2-shRNA was established by the transduction.
Then, 0.2 μg/mL of doxycycline (DOX; Clontech) was treated every 2 days in the medium to induce NRF2-shRNA expression. Thereafter, the NRF2 expression inhibition efficiency was verified by Western blotting, luciferase activity measurement and GFP expression measurement using a fluorescence microscope.
as §4

[9] = A549-tet-on GCR-shRNA cells, effect blocked by inhibition of GCR expression
[10] = co-treatment with clobetasol propionate
[11] = KEAP1 mutant A549 cells, co-treatment with clobetasol propionate

CCC(=O)O[C@]1(C(=O)CCl)[C@@H](C)C[C@H]2[C@@H]3CCC4=CC(=O)C=C[C@]4(C)[C@@]3(F)[C@@H](O)C[C@@]21C [clobetasol propionate]
NRF2 target protein expression ([1]; A549 cell line): effectively inhibited | expression of NRF2 target which has antioxidative activity ([1]; H2228 cell line): effectively inhibited | cell growth (colonies in soft agar) (H1299): did not significantly affect | cell growth (colonies in soft agar) (H2228): strongly inhibited | active oxygen (hydrogen peroxide) ([2]; A549): significantly increased | active oxygen (hydrogen peroxide) ([2]; H2228): significantly increased | cell growth (colonies in soft agar) (H460): slightly inhibited | body weight of the mice [3]: no significant change | anticancer effect (tumor volume) (A549-luc-C8 cells; 0.5 mpk intraperitoneally once every 2 days): distinct anticancer effect | anticancer effect (tumor volume) (A549-luc-C8 cells; 1 mpk intraperitoneally once every 2 days): distinct anticancer effect | cell growth (colonies in soft agar) (A549): strongly inhibited | migration of NRF2 into the nucleus (NRF2 [4]; under the treatment of MG132): inhibited | mRNA level of NRF2 (NRF2 [5]): did not affect | time for which inhibition of NRF2 activity was maintained (NRF2 [6]; 100 nM, measured at 8, 24 and 48 hours): at least 48 hours | NRF2 inhibitory effect at 1 μM compared among 13 GCs-based drugs (NRF2 [6]; 1 μM): most excellent inhibitory effect | activity of the NRF2 protein (luciferase) (NRF2 [6]; [9]): significantly reduced | concentration from which excellent NRF2 inhibitory effect is shown (luciferase) (NRF2 [6]; concentration comparison of 13 GCs-based drugs): ≥ 1 nM | level of the NRF2 protein (Western blot) (NRF2 [7]; [9]): significantly reduced

CO[C@H]1C[C@@H]2CC[C@@H](C)[C@@](O)(O2)C(=O)C(=O)N2CCCC[C@H]2C(=O)O[C@H]([C@H](C)C[C@@H]2CC[C@@H](O)[C@H](OC)C2)CC(=O)[C@H](C)/C=C(\C)[C@@H](O)[C@@H](OC)C(=O)[C@H](C)C[C@H](C)/C=C/C=C/C=C/1C [rapamycin]
body weight of the mice [3]: no significant change

CC(C)C[C@@H](C=O)NC(=O)[C@H](CC(C)C)NC(=O)[C@H](CC(C)C)NC(=O)OCc1ccccc1 [MG132] (Cbz-Leu-Leu-Leu-aldehyde)
inhibition of NRF2 activity by glucocorticoids, on MG132 treatment (NRF2 [6]; [10]): does not recover | amount of NRF2 protein inhibited by clobetasol propionate, on MG132 treatment (NRF2 [7]; [10]): recovered

NRF2sh-2: doxycyclin-inducible NRF2-shRNA, SEQ. NO. 2 of Table 1 (CCGGGCTCCTACTGTGATGTGAAATCTCGAGATTTCACATCACAGTAGGAGCTTTTTG)
inhibition of NRF2 protein expression, luciferase activity and GFP signal (NRF2 [8]): most effectively

Cc1c[nH]c(-c2cnc(NCCNc3ccc(C#N)cn3)nc2-c2ccc(Cl)cc2Cl)n1 [GSK3 inhibitor, CT99021]
effect of clobetasol propionate on NRF2 migration into the nucleus, on GSK3 inhibitor treatment (NRF2 [4]; under the treatment of MG132, co-treatment with clobetasol propionate): completely blocked | inhibition of activity of NRF2 induced by clobetasol propionate, on GSK3 inhibitor treatment (NRF2 [6]; [11]): inhibited | NRF2 proteolysis induced by clobetasol propionate, on GSK3 inhibitor treatment (NRF2 [7]; [11]): inhibited
